Results as given in US4123612A, “7-(5-Am ino-5-carboxyvaleramido)-3-(carbamoyoloxymethyl)-3-cephem-4-carboxylic acid” (Eli Lilly and Company, priority 1974, dated 1978).
Structures can show the parent of a compound that is named as a salt.

Key:
physchem = settings: 66% dimethylformamide-water
tomato plants = test: field trial on tomato plants, crop injury (Example 9); format: in vivo; settings: 0 = no injury, 10 = dead plants
Procedure: (§1) A mixture of the monoammonium salt of A16886I and the monoammonium salt of A16886II was tested under field conditions for the control of Xanthomonas vesicatoria (bacterial spot) on mature bearing tomato plants. The mixture of the two salts was dispersed in water at a concentration of 100, 200, or 400 parts per million and applied to the plants at the rate of 75 gallons per acre. Application was made with a CO2 sprayer at 50 psi. Plants were sprayed twice, on successive days; after the second spray had dried, all plants were wounded by sand blasting and then within one minute the plants were inoculated with a bacterial inoculum of Xanthomonas vesicatoria. Three days later, a third spray application of the aqueous formulation of A16886 was made. Readings were made one week and two weeks after the last spray treatment. Controls consisted of groups of plants (1) sand blasted and inoculated; (2) sand blasted only; (3) untreated; and (4) treated with streptomycin (on the same three-day spraying schedule, at a concentration of 100, 200, or 400 parts per million of aqueous solution, using a rate of 75 gallons per acre), sand blasted, and inoculated. The results were as set forth in the following table, in which crop injury is reported on a scale of 0-10, with 0 = no injury and 10 = dead plants; and control of bacterial spot is reported on a percentage basis.

Xanthomonas vesicatoria = test: field trial on tomato plants, bacterial spot control (Example 9); format: in vivo
Procedure: as §1

Salmonella typhosa SA 12 = test: Bauer-Kirby disc diffusion, zone of inhibition; settings: Salmonella enterica
From the text: (§2) The evaluation was made on the monoammonium salts of separated factors I and II.

[1] = tested on: Klebsiella-Aerobacter KA 25; test: Bauer-Kirby disc diffusion, zone of inhibition; format: cell-based
[2] = tested on: Ascaris lumbricoides var. suum; test: anthelmintic evaluation in mice by treated feed, separate factors (Example 13); format: in vivo; settings: 0.05 percent in diet, control 2.66
From the text: The feeds were utilized as diets for separate groups of mice, five mice per group. About twelve hours after initiation of the feeding, the mice were infected with Ascaris lumbricoides var. suum ova. Another group of five mice was fed the non-medicated feed to serve as a control but was similarly infected at the same time with Ascaris lumbricoides var. suum. All groups were fed their respective feed and maintained under normal laboratory conditions for a period of eight days, at which time all mice were taken off feed. On the ninth day, all mice were sacrificed and the lungs examined to determine the presence, and if present, numbers, of lesions of Ascaris lumbricoides var. suum.
In a further evaluation, the monoammonium salts of A16886I and A16886II were separately evaluated for the control of Ascaris lumbricoides var. suum. The evaluations were conducted in accordance with the procedure reported in Example 11 at a concentration in the diet of 0.05 percent.

[3] = tested on: Staphylococcus aureus 3055; test: Bauer-Kirby disc diffusion, zone of inhibition; format: cell-based
Salmonella typhosa SA 16 = test: Bauer-Kirby disc diffusion, zone of inhibition; settings: Salmonella enterica
From the text: as §2

Proteus sp. PR6 = test: Bauer-Kirby disc diffusion, zone of inhibition; format: cell-based
Pseudomonas sp. Ps 30 = test: Bauer-Kirby disc diffusion, zone of inhibition; format: cell-based
Escherichia coli 0127 = test: Bauer-Kirby disc diffusion, zone of inhibition; format: cell-based
Proteus sp. PR7 = test: Bauer-Kirby disc diffusion, zone of inhibition; format: cell-based
solubility = format: physicochemical
[4] = tested on: Klebsiella-Aerobacter KA 14; test: Bauer-Kirby disc diffusion, zone of inhibition; format: cell-based
[5] = tested on: Staphylococcus aureus 3074; test: Bauer-Kirby disc diffusion, zone of inhibition; format: cell-based
Escherichia coli EC 25 = test: Bauer-Kirby disc diffusion, zone of inhibition; format: cell-based
Pseudomonas sp. Ps 24 = test: Bauer-Kirby disc diffusion, zone of inhibition; format: cell-based

`COC1(NC(=O)CCCC(N)C(=O)O)C(=O)N2C(C(=O)O)=C(COC(N)=O)CSC21` (stereo not drawn) [A16886I hydrochloride] gave a pKa (physchem; pH 5, pK'a1) of 3.6, a pKa (physchem; pH 5, pK'a2) of 5.2 and a pKa (physchem; pH 5, pK'a3) of 10.8.
With `[H]/N=C(/N)N[C@H]1[C@H](O)[C@@H](O)[C@H](O[C@@H]2O[C@@H](C)[C@](O)(C=O)[C@H]2O[C@@H]2O[C@@H](CO)[C@H](O)[C@@H](O)[C@@H]2NC)[C@@H](N/C(N)=N\[H])[C@@H]1O` [Streptomycin] the “Crop Injury Ratings” value (tomato plants; 100 parts/million, first reading) was 0, the “Crop Injury Ratings” value (tomato plants; 100 parts/million, second reading) was 0 and the “Crop Injury Ratings” value (tomato plants; 200 parts/million, first reading) was 0. For the same compound, the “Crop Injury Ratings” value (tomato plants; 200 parts/million, second reading) was 0, the “Crop Injury Ratings” value (tomato plants; 400 parts/million, first reading) was 0 and the “Crop Injury Ratings” value (tomato plants; 400 parts/million, second reading) was 0. The “Percent Bacterial Spot Control” value (Xanthomonas vesicatoria; 100 parts/million, first reading (one week)) was 83%, the “Percent Bacterial Spot Control” value (Xanthomonas vesicatoria; 100 parts/million, second reading (two weeks)) was 57% and the “Percent Bacterial Spot Control” value (Xanthomonas vesicatoria; 200 parts/million, first reading (one week)) was 81%. For the same compound, the “Percent Bacterial Spot Control” value (Xanthomonas vesicatoria; 200 parts/million, second reading (two weeks)) was 37%, the “Percent Bacterial Spot Control” value (Xanthomonas vesicatoria; 400 parts/million, first reading (one week)) was 83% and the “Percent Bacterial Spot Control” value (Xanthomonas vesicatoria; 400 parts/million, second reading (two weeks)) was 59%.
Compound `NC(=O)OCC1=C(C(=O)O)N2C(=O)C(NC(=O)CCCC(N)C(=O)O)[C@H]2SC1` (stereo partly drawn) [A16886II, 7-(5-amino-5-carboxyvaleramido)-3-(carbamoyloxymethyl)-3-cephem-4-carboxylic acid] has a zone of inhibition at 0.5 µg/disc (Salmonella typhosa SA 12) of 0 mm, a zone of inhibition at 1 µg/disc (Salmonella typhosa SA 12) of 7.5 mm and a zone of inhibition at 2.5 µg/disc (Salmonella typhosa SA 12) of 12.3 mm. It also gave a zone of inhibition at 5 µg/disc (Salmonella typhosa SA 12) of 15.6 mm, a zone of inhibition at 10 µg/disc (Salmonella typhosa SA 12) of 18.7 mm and a zone of inhibition at 30 µg/disc (Salmonella typhosa SA 12) of 23.8 mm. For the same compound, the zone of inhibition at 0.5 µg/disc ([1]; 0.5 μg./disc) was 0 mm, the zone of inhibition at 1 µg/disc ([1]; 1.0 μg./disc) was 0 mm and the zone of inhibition at 2.5 µg/disc ([1]; 2.5 μg./disc) was 0 mm. The zone of inhibition at 5 µg/disc ([1]; 5 μg./disc) was 7.4 mm, the zone of inhibition at 10 µg/disc ([1]; 10 μg./disc) was 10.1 mm and the zone of inhibition at 30 µg/disc ([1]; 30 μg./disc) was 15.6 mm. It also gave a pKa (physchem; pH 6.8, pK'a1) of 4, a pKa (physchem; pH 6.8, pK'a2) of 5.3 and a pKa (physchem; pH 6.8, pK'a3) of 9.2. The pKa (physchem; pH 6.8, pK'a4) was 10.5, the pKa (physchem; pH 7.7, pK'a1) was 4.4 and the pKa (physchem; pH 7.7, pK'a2) was 5.7. For the same compound, the pKa (physchem; pH 7.7, pK'a3) was 9.6, the pKa (physchem; pH 7.7, pK'a4) was 10.4 and the “Average Number of Lung Lesions Per Group” value [2] was 0.20. The zone of inhibition at 0.5 µg/disc ([3]; 0.5 μg./disc) was 0 mm, the zone of inhibition at 1 µg/disc ([3]; 1.0 μg./disc) was 0 mm and the zone of inhibition at 2.5 µg/disc ([3]; 2.5 μg./disc) was 0 mm. It also gave a zone of inhibition at 5 µg/disc ([3]; 5 μg./disc) of 0 mm, a zone of inhibition at 10 µg/disc ([3]; 10 μg./disc) of 0 mm and a zone of inhibition at 30 µg/disc ([3]; 30 μg./disc) of 12.4 mm. The zone of inhibition at 0.5 µg/disc (Salmonella typhosa SA 16) was 0 mm, the zone of inhibition at 1 µg/disc (Salmonella typhosa SA 16) was 0 mm and the zone of inhibition at 2.5 µg/disc (Salmonella typhosa SA 16) was 7.5 mm. The zone of inhibition at 5 µg/disc (Salmonella typhosa SA 16) was 11 mm, the zone of inhibition at 10 µg/disc (Salmonella typhosa SA 16) was 13.4 mm and the zone of inhibition at 30 µg/disc (Salmonella typhosa SA 16) was 19.3 mm. For the same compound, the zone of inhibition at 0.5 µg/disc (Proteus sp. PR6; 0.5 μg./disc) was 0 mm, the zone of inhibition at 1 µg/disc (Proteus sp. PR6; 1.0 μg./disc) was 0 mm and the zone of inhibition at 2.5 µg/disc (Proteus sp. PR6; 2.5 μg./disc) was 10.4 mm. For the same compound, the zone of inhibition at 5 µg/disc (Proteus sp. PR6; 5 μg./disc) was 13.6 mm, the zone of inhibition at 10 µg/disc (Proteus sp. PR6; 10 μg./disc) was 16.7 mm and the zone of inhibition at 30 µg/disc (Proteus sp. PR6; 30 μg./disc) was 22.2 mm. It also gave a zone of inhibition at 0.5 µg/disc (Pseudomonas sp. Ps 30; SP.PS30, 0.5 μg./disc) of 0 mm, a zone of inhibition at 1 µg/disc (Pseudomonas sp. Ps 30; SP.PS30, 1.0 μg./disc) of 0 mm and a zone of inhibition at 2.5 µg/disc (Pseudomonas sp. Ps 30; SP.PS30, 2.5 μg./disc) of 0 mm. It also gave a zone of inhibition at 5 µg/disc (Pseudomonas sp. Ps 30; SP.PS30, 5 μg./disc) of 0 mm, a zone of inhibition at 10 µg/disc (Pseudomonas sp. Ps 30; SP.PS30, 10 μg./disc) of 0 mm and a zone of inhibition at 30 µg/disc (Pseudomonas sp. Ps 30; SP.PS30, 30 μg./disc) of 0 mm. The zone of inhibition at 0.5 µg/disc (Escherichia coli 0127; 0.5 μg./disc) was 0 mm, the zone of inhibition at 1 µg/disc (Escherichia coli 0127; 1.0 μg./disc) was 0 mm and the zone of inhibition at 2.5 µg/disc (Escherichia coli 0127; 2.5 μg./disc) was 9.4 mm. It also gave a zone of inhibition at 5 µg/disc (Escherichia coli 0127; 5 μg./disc) of 12.9 mm, a zone of inhibition at 10 µg/disc (Escherichia coli 0127; 10 μg./disc) of 15.9 mm and a zone of inhibition at 30 µg/disc (Escherichia coli 0127; 30 μg./disc) of 19.7 mm. It also gave a zone of inhibition at 0.5 µg/disc (Proteus sp. PR7; 0.5 μg./disc) of 0 mm, a zone of inhibition at 1 µg/disc (Proteus sp. PR7; 1.0 μg./disc) of 0 mm and a zone of inhibition at 2.5 µg/disc (Proteus sp. PR7; 2.5 μg./disc) of 0 mm. It also gave a zone of inhibition at 5 µg/disc (Proteus sp. PR7; 5 μg./disc) of 0 mm, a zone of inhibition at 10 µg/disc (Proteus sp. PR7; 10 μg./disc) of 0 mm and a zone of inhibition at 30 µg/disc (Proteus sp. PR7; 30 μg./disc) of 7.1 mm. For the same compound, the “solubility in acetonitrile and other organic solvents” value (solubility; acetonitrile and other organic solvents) was “essentially insoluble”, the “solubility in lower alkanols” value (solubility; lower alkanols) was “slightly soluble” and the solubility in water (solubility; water) was “very soluble”. The zone of inhibition at 0.5 µg/disc ([4]; 0.5 μg./disc) was 0 mm, the zone of inhibition at 1 µg/disc ([4]; 1.0 μg./disc) was 0 mm and the zone of inhibition at 2.5 µg/disc ([4]; 2.5 μg./disc) was 0 mm. For the same compound, the zone of inhibition at 5 µg/disc ([4]; 5 μg./disc) was 10.8 mm, the zone of inhibition at 10 µg/disc ([4]; 10 μg./disc) was 13.7 mm and the zone of inhibition at 30 µg/disc ([4]; 30 μg./disc) was 20.1 mm. It also gave a zone of inhibition at 0.5 µg/disc ([5]; 0.5 μg./disc) of 0 mm, a zone of inhibition at 1 µg/disc ([5]; 1.0 μg./disc) of 0 mm and a zone of inhibition at 2.5 µg/disc ([5]; 2.5 μg./disc) of 0 mm. The zone of inhibition at 5 µg/disc ([5]; 5 μg./disc) was 0 mm, the zone of inhibition at 10 µg/disc ([5]; 10 μg./disc) was 0 mm and the zone of inhibition at 30 µg/disc ([5]; 30 μg./disc) was 10.1 mm. It also gave a zone of inhibition at 0.5 µg/disc (Escherichia coli EC 25; EC25, 0.5 μg./disc) of 0 mm, a zone of inhibition at 1 µg/disc (Escherichia coli EC 25; EC25, 1.0 μg./disc) of 0 mm and a zone of inhibition at 2.5 µg/disc (Escherichia coli EC 25; EC25, 2.5 μg./disc) of 0 mm. The zone of inhibition at 5 µg/disc (Escherichia coli EC 25; EC25, 5 μg./disc) was 0 mm, the zone of inhibition at 10 µg/disc (Escherichia coli EC 25; EC25, 10 μg./disc) was 7.7 mm and the zone of inhibition at 30 µg/disc (Escherichia coli EC 25; EC25, 30 μg./disc) was 11.9 mm. For the same compound, the zone of inhibition at 0.5 µg/disc (Pseudomonas sp. Ps 24; SP.PS24, 0.5 μg./disc) was 0 mm, the zone of inhibition at 1 µg/disc (Pseudomonas sp. Ps 24; SP.PS24, 1.0 μg./disc) was 0 mm and the zone of inhibition at 2.5 µg/disc (Pseudomonas sp. Ps 24; SP.PS24, 2.5 μg./disc, * = satellite colonies within zone (Factor II)) was 9.3 mm. It also gave a zone of inhibition at 5 µg/disc (Pseudomonas sp. Ps 24; SP.PS24, 5 μg./disc, * = satellite colonies within zone (Factor II)) of 12.3 mm, a zone of inhibition at 10 µg/disc (Pseudomonas sp. Ps 24; SP.PS24, 10 μg./disc) of 15.4 mm and a zone of inhibition at 30 µg/disc (Pseudomonas sp. Ps 24; SP.PS24, 30 μg./disc) of 20.2 mm.
